One compound from the NIST ThermoML archive (doi:10.1021/acs.jced.5b00880) can be followed below.

For the data set the following is noted: Crystal; DTA.

± gives the expanded uncertainty stated by the source.

As to `O=C(O)CCCCC(=O)O` [1,6-hexanedioic acid], the Normal melting temperature stood at 152.4 ± 1.1 °C.
